Source: patent US9597382B2, “KNTC2 peptides and vaccines containing the same” (ONCOTHERAPY SCIENCE, INC., priority 2013, dated 2017)

Columns and labels:
[1] = test system: peptide-pulsed C1R-A02 cells; experiment: IFN-gamma ELISPOT assay on CTLs induced with KNTC2 peptides; format: cell-based, human; settings: CTLs induced with peptide-pulsed DCs from HLA-A*0201 positive donor; peptide-pulsed C1R-A02 cells vs control wells
Excerpt: Monocyte-derived dendritic cells (DCs) were used as antigen-presenting cells to induce cytotoxic T lymphocyte (CTL) responses against peptides presented on human leukocyte antigen (HLA). DCs were generated in vitro as described elsewhere (Nakahara S et al., Cancer Res 2003 Jul. 15, 63(14): 4112-8). Specifically, peripheral blood mononuclear cells isolated from a normal volunteer (HLA-A*0201 positive) by Ficoll-Paque plus (Pharmacia) solution were separated by adherence to a plastic tissue culture dish (Becton Dickinson) so as to enrich them as the monocyte fraction. The monocyte-enriched population was cultured in the presence of 1000 IU/ml of granulocyte-macrophage colony-stimulating factor (R&D System) and 1000 IU/ml of interleukin (IL)-4 (R&D System) in AIM-V Medium (Invitrogen) containing 2% heat-inactivated autologous serum (AS). After 7 days of culture, the cytokine-induced DCs were pulsed with 20 micro g/ml of each of the synthesized peptides in the presence of 3 micro g/ml of beta 2-microglobulin for 3 hr at 37 degrees C. in AIM-V Medium. The generated cells appeared to express DC-associated molecules, such as CD80, CD83, CD86 and HLA class II, on their cell surfaces (data not shown). These peptide-pulsed DCs were then inactivated by X ray-irradiated (20 Gy) and mixed at a 1:20 ratio with autologous CD8+ T cells, obtained by positive selection with CD8 Positive Isolation Kit (Dynal). These cultures were set up in 48-well plates (Corning); each well contained 1.5×10^4 peptide-pulsed DCs, 3×10^5 CD8+ T cells and 10 ng/ml of IL-7 (R&D System) in 0.5 ml of AIM-V/2% AS medium. Three days later, these cultures were supplemented with IL-2 (CHIRON) to a final concentration of 20 IU/ml. On day 7 and 14, the T cells were further stimulated with the autologous peptide-pulsed DCs. The DCs were prepared each time by the same way described above. CTL was tested against peptide-pulsed C1R-A02 cells after the 3rd round of peptide stimulation on day 21 (Tanaka H et al., Br J Cancer 2001 Jan. 5, 84(1): 94-9; Umano Y et al., Br J Cancer 2001 Apr. 20, 84(8): 1052-7; Uchida N et al., Clin Cancer Res 2004 Dec. 15, 10(24): 8577-86; Suda T et al., Cancer Sci 2006 May, 97(5): 411-9; Watanabe T et al., Cancer Sci 2005 August, 96(8): 498-506).
(§1) To examine specific CTL activity, IFN-gamma ELISPOT assay and IFN-gamma ELISA were performed. Peptide-pulsed C1R-A02 cells (1×10^4/well) were prepared as stimulator cells. Cultured cells in 48-well plate, CTL lines and CTL clones were used as responder cells. IFN-gamma ELISPOT assay and IFN-gamma ELISA were performed under the manufacturer's procedure.

[2] = test system: peptide-pulsed C1R-A02 cells; experiment: IFN-gamma ELISA of CTL lines; format: cell-based, human; settings: target cells pulsed with corresponding peptide vs without peptide pulse
Procedure: CTLs were expanded in culture using the method similar to the one described by Riddell et al. (Walter E A et al., N Engl J Med 1995 Oct. 19, 333(16): 1038-44; Riddell S R et al., Nat Med 1996 Feb. 2(2): 216-23). A total of 5×10^4 CTLs were suspended in 25 ml of AIM-V/5% AS medium with 2 kinds of human B-lymphoblastoid cell lines, inactivated by Mitomycin C, in the presence of 40 ng/ml of anti-CD3 monoclonal antibody (Pharmingen). One day after initiating the cultures, 120 IU/ml of IL-2 were added to the cultures. The cultures were fed with fresh AIM-V/5% AS medium containing 30 IU/ml of IL-2 on days 5, 8 and 11 (Tanaka H et al., Br J Cancer 2001 Jan. 5, 84(1): 94-9; Umano Y et al., Br J Cancer 2001 Apr. 20, 84(8): 1052-7; Uchida N et al., Clin Cancer Res 2004 Dec. 15, 10(24): 8577-86; Suda T et al., Cancer Sci 2006 May, 97(5): 411-9; Watanabe T et al., Cancer Sci 2005 August, 96(8): 498-506).
as §1

[3] = test system: COS7 cells transfected with KNTC2 and HLA-A*0201; experiment: Specific CTL activity against target cells expressing KNTC2 and HLA-A*0201; format: cell-based, African green monkey
Excerpt: The cDNA encoding an open reading frame of target genes or HLA-A*0201 was amplified by PCR. The PCR-amplified product was cloned into expression vector. The plasmids were transfected into COS7, which is the target genes and HLA-A*0201-null cell line, using lipofectamine 2000 (Invitrogen) according to the manufacturer's procedure. After 2 days from transfection, the transfected cells were harvested with versene (Invitrogen) and used as the stimulator cells (5×10^4 cells/well) for CTL activity assay.
The established CTL line raised against KNTC2-A02-9-184 (SEQ ID NO: 7) peptide was examined for the ability to recognize target cells that express KNTC2 and HLA-A*0201 molecule. COS7 cells transfected with both the full length of KNTC2 and HLA-A*0201 gene (a specific model for the target cells that express KNTC2 and HLA-A*0201 gene) were prepared as a stimulator cells, and COS7 cells transfected with either full length of KNTC2 or HLA-A*0201 were used as the controls.

[4] = test system: C1R-A02 cells pulsed with corresponding peptide; experiment: IFN-gamma ELISA of CTL clones established by limiting dilution; format: cell-based, human
Procedure: The dilutions were made to have 0.3, 1, and 3 CTLs/well in 96 round-bottomed micro titer plate (Nalge Nunc International). CTLs were cultured with 1×10^4 cells/well of 2 kinds of human B-lymphoblastoid cell lines, 30 ng/ml of anti-CD3 antibody, and 125 IU/ml of IL-2 in a total of 150 micro 1/well of AIM-V Medium containing 5% AS. 50 micro 1/well of IL-2 were added to the medium 10 days later to reach a final concentration of 125 IU/ml IL-2. CTL activity was tested on the 14th day, and CTL clones were expanded using the same method as described above (Uchida N et al., Clin Cancer Res 2004 Dec. 15, 10(24): 8577-86; Suda T et al., Cancer Sci 2006 May, 97(5): 411-9; Watanabe T et al., Cancer Sci 2005 August, 96(8): 498-506).
as §1

| Sequence | Peptide specific CTL activity (IFN-gamma production) by IFN-gamma ELISPOT [1] | IFN-gamma production of CTL lines by IFN-gamma ELISA [2] | CTL activity of CTL line against COS7 cells expressing both KNTC2 and HLA-A*0201 ([3]; COS7 transfected with both full length KNTC2 and HLA-A*0201) | CTL activity of CTL line against control COS7 cells ([3]; COS7 transfected with either full length KNTC2 or HLA-A*0201) | IFN-gamma production of CTL clones by IFN-gamma ELISA [4] |
| --- | --- | --- | --- | --- | --- |
| GLNEEIARV (a peptide derived from KNTC2) [SEQ ID NO: 1, 9mer peptide derived from KNTC2, start position 330] | no specific IFN-gamma production | – | – | – | – |
| AILDQKLNGL (a peptide derived from KNTC2) [SEQ ID NO: 53, 10mer peptide derived from KNTC2, start position 322] | potent IFN-gamma production | – | – | – | – |
| LVWLIDCIKI (a peptide derived from KNTC2) [SEQ ID NO: 68, 10mer peptide derived from KNTC2, start position 185] | potent IFN-gamma production | – | – | – | – |
| KIFTFLYGF (a peptide derived from KNTC2) [SEQ ID NO: 17, 9mer peptide derived from KNTC2, start position 127] | potent IFN-gamma production | – | – | – | – |
| ALVWLIDCI (a peptide derived from KNTC2) [SEQ ID NO: 7, 9mer peptide derived from KNTC2, start position 184] | potent IFN-gamma production | potent IFN-gamma production | potent CTL activity | no significant specific CTL activity was detected | Potent IFN-gamma production |
| FLYGFLCPS (a peptide derived from KNTC2) [SEQ ID NO: 2, 9mer peptide derived from KNTC2, start position 131] | potent IFN-gamma production | potent IFN-gamma production | – | – | Potent IFN-gamma production |
| KIFTFLYGFL (a peptide derived from KNTC2) [SEQ ID NO: 41, 10mer peptide derived from KNTC2, start position 127] | potent IFN-gamma production | – | – | – | – |
| IVAALVWLI (a peptide derived from KNTC2) [SEQ ID NO: 3, 9mer peptide derived from KNTC2, start position 181] | potent IFN-gamma production | potent IFN-gamma production | – | – | Potent IFN-gamma production |
